In US8697667B2, “Cyclodextrin-modified polyamines for delivery of therapeutic molecules” (Rutgers, The State University of New Jersey, priority 2010, dated 2014):
Where two headings read alike, the source gives them in different places.

Assays:
Aqueous solubility = assay type: physicochemical
glioblastoma cells = assay: Annexin-V/Propidium Iodide apoptosis assay; assay type: cell-based; settings: combined with siRNA against EGFRvIII (200 nM), polymer 100 μM; SAHA 5 μM, erlotinib 30 μM; versus individual treatments
From the text: Cells were harvested by trypsinization and stained using an Annexin V FITC Apoptosis Detection kit (Roche, Cambridge, Mass.) according to the manufacturer's protocol. The stained cells were immediately analyzed by flow cytometry (FACScan; Becton Dickinson, Franklin Lake, N.J.). Early apoptotic cells with exposed phosphatidylserine but intact cell membranes bound to Annexin V-FITC but excluded propidium iodide. Cells in necrotic or late apoptotic stages were labeled with both Annexin V-FITC and propidium iodide.

| aqueous solubility (Aqueous solubility) | aqueous solubility (Aqueous solubility; drug loaded into / complexed with β-CD cavity) | SMILES | induction of apoptosis (Annexin-V-FITC-positive cells) (glioblastoma cells) |
| --- | --- | --- | --- |
| < 1.8 g/100 mL |  | OC[C@H]1O[C@@H]2O[C@H]3[C@H](O)[C@@H](O)[C@@H](O[C@H]4[C@H](O)[C@@H](O)[C@@H](O[C@H]5[C@H](O)[C@@H](O)[C@@H](O[C@H]6[C@H](O)[C@@H](O)[C@@H](O[C@H]7[C@H](O)[C@@H](O)[C@@H](O[C@H]8[C@H](O)[C@@H](O)[C@@H](O[C@H]1[C@H](O)[C@H]2O)O[C@@H]8CO)O[C@@H]7CO)O[C@@H]6CO)O[C@@H]5CO)O[C@@H]4CO)O[C@@H]3CO [CD, β-cyclodextrin] |  |
|  |  | O=C(CCCCCCC(=O)Nc1ccccc1)NO [SAHA, suberoylanilide hydroxamic acid] | greater induction of apoptosis |
|  | 178 mg/100 mL | C#Cc1cccc(Nc2ncnc3cc(OCCOC)c(OCCOC)cc23)c1 [erlotinib, N-(3-ethynylphenyl)-6,7-bis(2-methoxyethoxy)quinazolin-4-amine] | cooperative induction of apoptosis |
